Columns and labels:
[1] = target: T1, Cholecystokinin receptor type A (Homo sapiens, UniProt P32238)
T1 sequence (P32238 whole entry): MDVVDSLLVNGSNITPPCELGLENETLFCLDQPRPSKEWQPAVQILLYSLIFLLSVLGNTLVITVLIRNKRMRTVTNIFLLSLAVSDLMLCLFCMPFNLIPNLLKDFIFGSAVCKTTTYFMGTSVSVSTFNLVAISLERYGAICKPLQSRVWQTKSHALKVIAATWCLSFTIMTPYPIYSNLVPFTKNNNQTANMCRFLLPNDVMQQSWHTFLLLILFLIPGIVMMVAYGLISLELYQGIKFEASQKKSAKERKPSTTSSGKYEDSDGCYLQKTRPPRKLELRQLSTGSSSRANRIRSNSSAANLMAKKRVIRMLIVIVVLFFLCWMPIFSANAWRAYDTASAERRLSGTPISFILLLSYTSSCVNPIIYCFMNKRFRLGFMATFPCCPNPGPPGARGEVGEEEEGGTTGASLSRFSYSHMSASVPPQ

[2] = target: T2, 5-hydroxytryptamine receptor 2C (Homo sapiens, UniProt P28335)
T2 sequence (P28335 whole entry): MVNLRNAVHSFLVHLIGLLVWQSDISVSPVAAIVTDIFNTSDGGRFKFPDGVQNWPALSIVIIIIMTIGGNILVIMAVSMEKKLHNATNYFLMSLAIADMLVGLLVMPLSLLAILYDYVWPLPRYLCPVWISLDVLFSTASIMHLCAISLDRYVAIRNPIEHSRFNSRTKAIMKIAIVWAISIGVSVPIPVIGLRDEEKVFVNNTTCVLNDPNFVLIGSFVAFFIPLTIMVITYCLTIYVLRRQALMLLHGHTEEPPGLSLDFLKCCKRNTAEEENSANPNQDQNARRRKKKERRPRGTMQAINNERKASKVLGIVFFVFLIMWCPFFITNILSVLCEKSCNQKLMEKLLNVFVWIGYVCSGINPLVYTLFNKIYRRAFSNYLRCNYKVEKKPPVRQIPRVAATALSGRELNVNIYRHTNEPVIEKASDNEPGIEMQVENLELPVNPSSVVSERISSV

[3] = target: T3, Gastrin/cholecystokinin type B receptor (Homo sapiens, UniProt P32239)
T3 sequence (P32239 whole entry): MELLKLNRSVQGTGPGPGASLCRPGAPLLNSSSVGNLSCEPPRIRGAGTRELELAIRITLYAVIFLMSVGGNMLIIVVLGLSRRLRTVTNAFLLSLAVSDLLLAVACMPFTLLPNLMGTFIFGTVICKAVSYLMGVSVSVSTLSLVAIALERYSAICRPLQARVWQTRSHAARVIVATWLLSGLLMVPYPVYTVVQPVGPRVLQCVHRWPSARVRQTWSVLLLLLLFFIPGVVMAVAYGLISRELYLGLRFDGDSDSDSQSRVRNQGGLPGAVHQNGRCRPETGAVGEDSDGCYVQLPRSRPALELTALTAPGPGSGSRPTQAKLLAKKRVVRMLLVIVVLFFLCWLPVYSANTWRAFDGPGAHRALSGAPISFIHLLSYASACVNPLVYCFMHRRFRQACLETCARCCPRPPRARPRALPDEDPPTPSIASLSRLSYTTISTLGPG

[4] = target: T4, Alpha-2C adrenergic receptor (Homo sapiens, UniProt P18825); assay type: functional
T4 sequence (P18825 whole entry): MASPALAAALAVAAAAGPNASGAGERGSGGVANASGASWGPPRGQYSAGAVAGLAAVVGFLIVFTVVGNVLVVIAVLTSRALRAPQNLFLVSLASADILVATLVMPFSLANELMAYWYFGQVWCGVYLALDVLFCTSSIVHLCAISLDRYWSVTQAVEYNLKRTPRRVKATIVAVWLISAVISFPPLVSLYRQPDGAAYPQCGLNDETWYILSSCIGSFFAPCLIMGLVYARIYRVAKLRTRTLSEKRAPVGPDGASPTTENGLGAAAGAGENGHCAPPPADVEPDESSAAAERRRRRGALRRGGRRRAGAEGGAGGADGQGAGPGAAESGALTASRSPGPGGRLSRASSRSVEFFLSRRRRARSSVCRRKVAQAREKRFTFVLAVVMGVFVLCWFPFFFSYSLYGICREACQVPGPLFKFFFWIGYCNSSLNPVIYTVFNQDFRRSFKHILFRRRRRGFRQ

[5] = target: Beta-2 adrenergic receptor (Homo sapiens, UniProt P07550); assay type: functional, cell-based
Chain of Beta-2 adrenergic receptor (P07550 whole entry): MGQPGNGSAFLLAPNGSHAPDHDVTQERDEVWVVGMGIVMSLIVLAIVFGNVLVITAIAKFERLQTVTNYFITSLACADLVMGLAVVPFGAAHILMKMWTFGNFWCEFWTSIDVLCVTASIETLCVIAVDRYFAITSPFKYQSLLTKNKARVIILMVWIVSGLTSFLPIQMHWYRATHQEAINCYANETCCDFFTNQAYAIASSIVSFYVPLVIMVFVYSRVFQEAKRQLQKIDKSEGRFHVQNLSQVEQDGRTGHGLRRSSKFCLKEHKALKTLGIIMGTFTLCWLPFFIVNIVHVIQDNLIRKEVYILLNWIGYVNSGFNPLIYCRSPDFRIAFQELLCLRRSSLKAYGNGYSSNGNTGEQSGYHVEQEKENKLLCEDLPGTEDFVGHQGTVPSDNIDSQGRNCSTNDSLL

Cannabinoid receptor 1 = Cannabinoid receptor 1 (Homo sapiens, UniProt P21554)
Chain of Cannabinoid receptor 1 (P21554 whole entry): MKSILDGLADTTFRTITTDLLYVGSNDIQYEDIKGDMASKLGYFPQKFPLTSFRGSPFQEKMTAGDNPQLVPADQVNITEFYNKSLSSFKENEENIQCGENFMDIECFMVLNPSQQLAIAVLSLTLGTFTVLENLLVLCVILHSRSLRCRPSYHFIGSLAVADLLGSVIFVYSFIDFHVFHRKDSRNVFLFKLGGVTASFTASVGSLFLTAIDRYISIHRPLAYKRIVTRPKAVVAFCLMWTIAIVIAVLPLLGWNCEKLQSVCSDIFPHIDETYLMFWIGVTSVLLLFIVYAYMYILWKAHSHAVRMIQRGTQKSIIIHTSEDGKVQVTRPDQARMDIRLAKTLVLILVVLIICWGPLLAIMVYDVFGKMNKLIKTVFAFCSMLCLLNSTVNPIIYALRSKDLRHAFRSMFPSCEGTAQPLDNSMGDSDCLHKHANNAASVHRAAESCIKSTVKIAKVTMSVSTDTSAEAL

[6] = target: T5, Alpha-1A adrenergic receptor (Homo sapiens, UniProt P35348)
T5 sequence (P35348 whole entry): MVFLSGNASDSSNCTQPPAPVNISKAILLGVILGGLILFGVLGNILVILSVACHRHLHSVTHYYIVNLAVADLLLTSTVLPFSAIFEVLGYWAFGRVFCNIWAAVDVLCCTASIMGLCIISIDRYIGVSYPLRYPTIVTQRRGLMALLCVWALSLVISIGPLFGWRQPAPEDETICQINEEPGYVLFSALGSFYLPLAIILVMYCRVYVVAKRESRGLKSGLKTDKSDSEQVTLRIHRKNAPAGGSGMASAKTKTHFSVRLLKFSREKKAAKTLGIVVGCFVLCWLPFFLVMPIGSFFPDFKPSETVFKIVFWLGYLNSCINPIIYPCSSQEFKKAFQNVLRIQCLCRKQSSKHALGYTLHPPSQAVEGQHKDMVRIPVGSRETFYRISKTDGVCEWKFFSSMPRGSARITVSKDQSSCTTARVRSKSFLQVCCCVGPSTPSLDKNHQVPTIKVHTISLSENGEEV

Mu-type opioid receptor = Mu-type opioid receptor (Homo sapiens, UniProt P35372)
Chain of Mu-type opioid receptor (P35372 whole entry): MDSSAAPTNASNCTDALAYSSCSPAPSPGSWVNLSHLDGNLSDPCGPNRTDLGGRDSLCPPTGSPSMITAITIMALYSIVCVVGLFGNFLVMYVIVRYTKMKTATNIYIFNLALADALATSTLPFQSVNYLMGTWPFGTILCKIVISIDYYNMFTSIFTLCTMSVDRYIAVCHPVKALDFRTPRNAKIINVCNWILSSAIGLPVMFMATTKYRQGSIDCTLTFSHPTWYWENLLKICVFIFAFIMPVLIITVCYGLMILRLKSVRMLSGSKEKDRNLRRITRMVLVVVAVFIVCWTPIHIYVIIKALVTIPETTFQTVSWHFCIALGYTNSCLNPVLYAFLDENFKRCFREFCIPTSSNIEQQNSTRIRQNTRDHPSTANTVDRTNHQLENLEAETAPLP

Melanocortin receptor 4 = Melanocortin receptor 4 (Homo sapiens, UniProt P32245)
Chain of Melanocortin receptor 4 (P32245 whole entry): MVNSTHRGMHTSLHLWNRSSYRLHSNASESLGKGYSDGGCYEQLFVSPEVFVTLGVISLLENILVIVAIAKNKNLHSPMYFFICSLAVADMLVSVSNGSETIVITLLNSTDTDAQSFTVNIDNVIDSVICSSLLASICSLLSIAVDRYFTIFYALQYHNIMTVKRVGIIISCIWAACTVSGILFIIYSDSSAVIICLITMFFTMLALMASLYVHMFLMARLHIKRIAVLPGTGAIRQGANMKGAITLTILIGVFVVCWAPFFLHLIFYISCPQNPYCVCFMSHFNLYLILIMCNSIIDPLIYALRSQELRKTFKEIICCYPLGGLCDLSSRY
Note: assay procedure not described here.

| SMILES | AC50 [1] [µM] | AC50 [2] [µM] | AC50 [3] [µM] | AC50 [4] [µM] | AC50 [5] [µM] | AC50 (Cannabinoid receptor 1) [µM] | AC50 [6] [µM] | AC50 (Mu-type opioid receptor) [µM] | AC50 (Melanocortin receptor 4) [µM] |
| --- | --- | --- | --- | --- | --- | --- | --- | --- | --- |
| C=C1CC[C@@]2(O)[C@H]3Cc4ccc(O)c5c4[C@@]2(CCN3CC2CC2)[C@H]1O5 | > 30 | > 30 | > 30 | > 30 | > 30 |  |  |  |  |
| Nc1ncnc2c1ncn2[C@@H]1O[C@H](COP(=O)(O)O)[C@@H](O)[C@H]1O [ADENOSINE PHOSPHATE] | > 30 | > 30 | > 30 | > 30 | 9.5 |  |  |  |  |
| COc1ccc2cccc(CCNC(C)=O)c2c1 [AGOMELATINE] | > 30 |  | > 30 | > 10 |  | > 10 | > 10 | > 30 | > 30 |
| CCCC(CCC)C(=O)O[C@H]1C[C@H]2CC[C@@H](C1)[N+]2(C)C [ANISOTROPINE] | > 30 | > 30 | > 30 | > 30 | > 30 |  |  |  |  |
| CCC(C(=O)O)c1ccc(CC(C)C)cc1 (stereo not drawn) [BUTIBUFEN] | > 30 | > 30 | > 30 | > 30 | > 30 |  |  |  |  |
| CCCCCOC(=O)Nc1nc(=O)n([C@@H]2O[C@H](C)[C@@H](O)[C@H]2O)cc1F [CAPECITABINE] | > 30 | > 30 | > 30 | > 30 | > 30 |  |  |  |  |
| CCCCOc1cc(C(=O)NCCN(CC)CC)c2ccccc2n1 [DIBUCAINE] | > 30 | > 30 | > 30 | > 10 |  | > 10 | > 10 | > 30 | > 30 |
| C#CC1(OC(N)=O)CCCCC1 [ETHINAMATE] | > 10 | > 30 |  | > 10 |  | > 10 | > 10 | > 30 | > 10 |
| COc1c(N2CCNC(C)C2)c(F)cc2c(=O)c(C(=O)O)cn(C3CC3)c12 (stereo not drawn) [GATIFLOXACIN] | > 10 | > 30 |  | > 10 |  | > 10 | > 30 | > 30 | > 10 |
| O=C1CN=C(c2ccccc2)c2cc(Cl)ccc2N1CC(F)(F)F [HALAZEPAM] | > 30 |  | > 30 | > 30 | > 30 |  |  |  |  |
| CCC1(C2=CCCCCC2)C(=O)NC(=O)NC1=O [HEPTABARBITAL] | > 10 | > 30 |  | > 10 |  | > 10 | > 10 | > 30 | > 10 |
| CCCCCN(C)CCC(O)(P(=O)(O)O)P(=O)(O)O [IBANDRONIC ACID] | > 30 | > 30 | > 30 | > 30 |  | > 30 | > 10 | > 30 | > 30 |
| C1=Cc2cccc(OCC3CNCCO3)c2C1 (stereo not drawn) [INDELOXAZINE] | > 30 | > 10 | > 30 | > 30 | > 30 |  |  |  |  |
